Results reported in the supplement of paper PMC10307832.

Key:
Assay in all cases: relative viability (nuclei count vs DMSO), 5 days (fraction); higher = more cells survive
[1] = compound: Nc1ccn([C@@H]2O[C@H](CO)[C@@H](O)C2(F)F)c(=O)n1 [Gemcitabine] + Nc1ncn([C@H]2C[C@H](O)[C@@H](CO)O2)c(=O)n1 [Decitabine] (partner 2 µM)
In short: (§1)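 Lung cancer cell lines were seeded in 1536-well plates and dosed by pin tool the next day, with either a single drug or a fixed anchor-drug dose combined with five library-drug doses (not always all listed) spaced in √10 steps. Five days later, one step fixed the cells and stained their nuclei (final 0.05% Triton X-100, 1% formaldehyde, 1 ug/ml Hoechst), and nuclei were counted on 4× images. Relative viability is the nuclei count in treated wells divided by the count in vehicle wells, and each value is the median of duplicate plates.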

[2] = compound: Nc1ccn([C@@H]2O[C@H](CO)[C@@H](O)C2(F)F)c(=O)n1 [Gemcitabine] + COc1cc2c(Oc3ccc(NC(=O)C4(C(=O)Nc5ccc(F)cc5)CC4)cc3F)ccnc2cc1OCCCN1CCOCC1 [Foretinib] (partner 0.25 µM)
In short: as §1

[3] = compound: Nc1ccn([C@@H]2O[C@H](CO)[C@@H](O)C2(F)F)c(=O)n1 [Gemcitabine] + Cc1nc(Nc2ncc(C(=O)Nc3c(C)cccc3Cl)s2)cc(N2CCN(CCO)CC2)n1 [Dasatinib] (partner 0.075 µM)
In short: as §1

[4] = compound: Nc1ccn([C@@H]2O[C@H](CO)[C@@H](O)C2(F)F)c(=O)n1 [Gemcitabine] + CCNC(=O)c1noc(-c2cc(C(C)C)c(O)cc2O)c1-c1ccc(CN2CCOCC2)cc1 [Luminespib] (partner 0.01 µM)
In short: as §1

Row | Cell Line | relative viability ([1]; first compound 0.001 µM) | relative viability ([1]; first compound 0.003162 µM) | relative viability ([1]; first compound 0.01 µM) | relative viability ([1]; first compound 0.03162 µM) | relative viability ([1]; first compound 0.1 µM) | relative viability ([2]; first compound 0.001 µM) | relative viability ([2]; first compound 0.003162 µM) | relative viability ([2]; first compound 0.01 µM) | relative viability ([2]; first compound 0.03162 µM) | relative viability ([2]; first compound 0.1 µM) | relative viability ([3]; first compound 0.001 µM) | relative viability ([3]; first compound 0.003162 µM) | relative viability ([3]; first compound 0.01 µM) | relative viability ([3]; first compound 0.03162 µM) | relative viability ([3]; first compound 0.1 µM) | relative viability ([4]; first compound 0.001 µM) | relative viability ([4]; first compound 0.003162 µM) | relative viability ([4]; first compound 0.01 µM) | relative viability ([4]; first compound 0.03162 µM) | relative viability ([4]; first compound 0.1 µM)
1 | 201T | 0.83 | 0.87 | 0.906 | 0.776 | 0.446 | 1.06 | 0.994 | 0.914 | 0.217 | 0.177 | 0.551 | 0.654 | 0.472 | 0.32 | 0.29 | 1.04 | 1.03 | 1.04 | 0.681 | 0.278
2 | A549 | 0.292 | 0.274 | 0.0559 | 0.0266 | 0.0227 | 0.998 | 0.901 | 0.616 | 0.0177 | 0.0104 |  |  |  |  |  |  |  |  |  | 
3 | A-427 | 0.629 | 0.546 | 0.463 | 0.342 | 0.273 | 1.09 | 0.948 | 0.598 | 0.181 | 0.155 | 0.67 | 0.629 | 0.183 | 0.126 | 0.109 | 1 | 0.899 | 0.443 | 0.195 | 0.171
4 | ABC-1 |  | 0.798 | 1.07 | 0.497 | 0.436 | 0.886 |  | 1.06 | 0.312 | 0.17 | 0.548 | 0.483 | 0.373 | 0.175 | 0.175 | 0.618 | 1.05 | 0.371 | 0.25 | 0.151
5 | BEN | 0.698 | 0.456 | 0.413 | 0.249 | 0.257 | 0.77 | 0.575 | 0.303 | 0.112 | 0.119 | 0.331 | 0.254 | 0.18 | 0.0876 | 0.109 | 0.528 | 0.317 | 0.14 | 0.12 | 0.107
6 | CAL-12T |  |  |  |  |  | 1.11 | 1.03 | 0.982 | 0.707 | 0.182 | 0.473 | 0.395 | 0.302 | 0.128 | 0.114 | 0.87 | 0.238 | 0.245 | 0.236 | 0.173
7 | COR-L23 | 0.423 | 0.463 | 0.443 | 0.217 | 0.146 | 0.972 | 0.898 | 0.556 | 0.123 | 0.0959 | 0.606 | 0.495 | 0.201 | 0.0891 | 0.0729 | 0.742 | 0.704 | 0.311 | 0.143 | 0.0841
8 | COR-L 105 | 0.68 | 0.596 | 0.46 | 0.37 | 0.3 | 1.39 | 0.884 | 1.01 | 0.371 | 0.27 | 0.295 | 0.318 | 0.274 | 0.198 | 0.154 | 0.886 | 0.793 | 0.571 | 0.275 | 0.188
9 | Calu-6 |  |  |  |  |  | 0.847 | 0.566 | 0.403 | 0.0993 | 0.0677 |  |  |  |  |  |  |  |  |  | 
10 | ChaGo-K-1 | 0.517 | 0.467 | 0.337 | 0.205 | 0.187 | 0.901 | 0.815 | 0.428 | 0.213 | 0.191 | 0.535 | 0.544 | 0.205 | 0.144 | 0.166 | 0.603 | 0.474 | 0.259 | 0.183 | 0.186
11 | EBC-1 |  |  |  |  |  | 0.0943 | 0.0886 | 0.0845 | 0.0844 | 0.0813 |  |  |  |  |  |  |  |  |  | 
12 | EKVX | 0.3 | 0.256 | 0.18 | 0.193 | 0.14 | 0.788 | 0.457 | 0.173 | 0.246 | 0.113 | 0.471 | 0.658 | 0.546 | 0.232 | 0.172 | 1.06 | 0.727 | 0.456 | 0.182 | 0.115
13 | EMC-BAC-2 | 0.965 | 0.936 | 0.726 | 0.356 | 0.262 | 1.03 | 1.03 | 0.885 | 0.201 | 0.201 | 0.348 | 0.352 | 0.181 | 0.124 | 0.137 | 1.29 | 1.17 | 1.04 | 0.222 | 0.194
14 | EPLC-272H | 0.389 | 0.353 | 0.305 | 0.224 | 0.0962 | 0.636 | 0.815 | 0.416 | 0.075 | 0.0466 | 0.421 | 0.433 | 0.153 | 0.112 | 0.0503 | 0.145 | 0.323 | 0.337 | 0.16 | 0.135
15 | H3255 | 0.884 | 0.374 | 0.42 | 0.238 | 0.15 | 1.04 | 0.666 | 0.782 | 0.273 | 0.229 | 0.333 | 0.38 | 0.349 | 0.225 | 0.296 | 0.899 | 0.752 | 0.707 | 0.271 | 0.248
16 | HARA | 0.593 | 0.702 | 0.373 | 0.279 | 0.131 | 0.965 | 0.894 | 0.853 | 0.119 | 0.0735 | 0.244 | 0.331 | 0.241 | 0.228 | 0.0727 | 0.683 | 0.847 | 0.719 | 0.0504 | 0.0409
17 | HCC-15 | 0.622 | 0.67 | 0.612 | 0.226 | 0.107 | 1.12 | 1.07 | 1.01 | 0.152 | 0.0815 | 0.589 | 0.666 | 0.561 | 0.0908 | 0.0718 | 0.305 | 0.234 | 0.32 | 0.15 | 0.0821
18 | HCC-44 | 0.936 | 0.918 | 0.901 | 0.845 | 0.738 |  |  |  |  |  |  |  |  |  |  | 1.07 | 0.979 | 0.813 | 0.261 | 0.226
19 | HCC-78 | 0.622 | 0.651 | 0.367 | 0.343 | 0.268 | 0.502 | 0.44 | 0.416 | 0.267 | 0.241 | 0.322 | 0.31 | 0.232 | 0.154 | 0.209 |  |  |  |  | 
